# Reference: patent US12240840B2, “Amide-substituted heterocyclic compounds for the treatment of conditions related to the modulation of IL-12, IL-23 and/or IFN-alpha” (BRISTOL-MYERS SQUIBB COMPANY, priority 2018, dated 2025)
# Test system: IFNα-induced pSTAT5 (pY694) in CD3 positive cells of human whole blood
# Experiment: IFNα-Induced STAT Phosphorylation in Human Whole Blood
# Format: cell-based
# Settings: Homo sapiens, 1 h compound incubation, 1000 U/mL recombinant human IFNα A/D for 15 min, pSTAT5 in CD3 positive population, read-out: Human WB IFNα-Induced Stat Phosph. (IC50)
# In short: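 Read-out is median fluorescence intensity of pSTAT5 (pY694) in the CD3-positive gate, by flow cytometry after fix/lyse and permeabilization. Before that, whole human blood anticoagulated with EDTA or ACD-A received compound for an hour and 1000 U/mL IFNα A/D for 15 min.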
row,Compound,IC50
1,[2H]C([2H])([2H])NC(=O)c1nnc(NC(=O)C2CC2)cc1Nc1cccc(-c2nc(/C=C/c3ccccc3)no2)c1OC [Example 236],> 10000 nM
2,[2H]C([2H])([2H])NC(=O)c1nnc(Nc2ccc(C)nn2)cc1Nc1cccc(-c2nc(CN3CCOCC3)no2)c1OC [Example 237],70 nM
3,[2H]C([2H])([2H])NC(=O)c1nnc(Nc2ccc(OC)nn2)cc1Nc1cccc(-c2nc(CN3CCOCC3)no2)c1OC [Example 238],80 nM
4,"[2H]C([2H])([2H])NC(=O)c1nnc(NC(=O)C2CC2)cc1Nc1cccc(-c2cnc(C(=O)N(C)C)s2)c1OC [Example 239, 5-(3-((6-(cyclopropanecarboxamido)-3-((methyl-d3)carbamoyl)pyridazin-4-yl)amino)-2-methoxyphenyl)-N,N-dimethylthiazole-2-carboxamide]",50 nM
5,[2H]C([2H])([2H])NC(=O)c1nnc(NC(=O)C2CC2)cc1Nc1cccc(-c2ncc(C(=O)NCCNC(=O)CC)s2)c1OC [Example 240],180 nM
6,[2H]C([2H])([2H])NC(=O)c1nnc(NC(=O)C2CC2)cc1Nc1cccc(-c2ncc(C(=O)N3CCN(S(=O)(=O)C=C)CC3)s2)c1OC [Example 241],620 nM
7,[2H]C([2H])([2H])NC(=O)c1nnc(NC(=O)C2CC2)cc1Nc1cccc(-c2ncc(C(=O)N3CCN(S(=O)(=O)CC)CC3)s2)c1OC [Example 242],21 nM
8,COc1c(Nc2cc(NC(=O)C3CC3)nnc2C(N)=O)cccc1-c1ncc(CC(=O)N(C)C)s1 [Example 243],90 nM
9,COc1c(Nc2cc(NC(=O)C3CC3)nnc2C(N)=O)cccc1-c1ncc(CC(=O)N2CCOCC2)s1 [Example 244],120 nM
10,COc1c(Nc2cc(NC(=O)C3CC3)nnc2C(N)=O)cccc1-c1ncc(C(=O)N2CCOCC2)s1 [Example 245],110 nM
11,COc1c(Nc2cc(NC(=O)C3CC3)nnc2C(N)=O)cccc1-c1ncc(C(=O)N(C)C)s1 [Example 246],30 nM
12,COc1c(Nc2cc(NC(=O)C3CC3)nnc2C(N)=O)cccc1-c1ncc(C(=O)NCCC2CCCN2C)s1 (stereo not drawn) [Example 247],100 nM
13,[2H]C([2H])([2H])NC(=O)c1nnc(NC(=O)C2CC2)cc1Nc1cccc(-c2ncc(CC(=O)NCC(O)CO)s2)c1OC (stereo not drawn) [Example 248],2240 nM
14,[2H]C([2H])([2H])NC(=O)c1nnc(NC(=O)C2CC2)cc1Nc1cccc(-c2ncc(CC(=O)N3CCS(=O)(=O)CC3)s2)c1OC [Example 250],640 nM
15,[2H]C([2H])([2H])NC(=O)c1nnc(NC(=O)C2CC2)cc1Nc1cccc(-c2ncc(CC(=O)NCCCN(C)C)s2)c1OC [Example 252],3270 nM
16,[2H]C([2H])([2H])NC(=O)c1nnc(NC(=O)C2CC2)cc1Nc1cccc(-c2ncc(CC(=O)N3CCOCC3)s2)c1OC [Example 253],300 nM
17,[2H]C([2H])([2H])NC(=O)c1nnc(NC(=O)C2CC2)cc1Nc1cccc(-c2ncc(CC(=O)NCCC3CCCN3C)s2)c1OC (stereo not drawn) [Example 254],5430 nM
18,[2H]C([2H])([2H])NC(=O)c1nnc(NC(=O)C2CC2)cc1Nc1cccc(-c2ncc(CC(=O)NCCOC)s2)c1OC [Example 255],620 nM
19,[2H]C([2H])([2H])NC(=O)c1nnc(NC(=O)C2CC2)cc1Nc1cccc(-c2ncc(CC(=O)N(C)C)s2)c1OC [Example 256],130 nM
20,[2H]C([2H])([2H])NC(=O)c1nnc(NC(=O)C2CC2)cc1Nc1cccc(-c2ncc(CO)s2)c1OC [Example 257],230 nM
21,[2H]C([2H])([2H])NC(=O)c1nnc(NC(=O)C2CC2)cc1Nc1cccc(-c2ncc(C(C)O)s2)c1OC (stereo not drawn) [Example 258],130 nM
22,[2H]C([2H])([2H])NC(=O)c1nnc(NC(=O)C2CC2)cc1Nc1cccc(-c2ncc(CNC(=O)OC(C)(C)C)s2)c1OC [Example 259],> 10000 nM
23,[2H]C([2H])([2H])NC(=O)c1nnc(NC(=O)C2CC2)cc1Nc1cccc(-c2ncc(CN)s2)c1OC [Example 260],540 nM
24,[2H]C([2H])([2H])NC(=O)c1nnc(NC(=O)C2CC2)cc1Nc1cccc(-c2ncc(CNC(C)=O)s2)c1OC [Example 261],680 nM
